From patent US20210215714A1, “COMPLEMENT ALTERNATIVE PATHWAY-ASSOCIATED NEPHROPATHY BIOMARKERS” (Achillion Pharmaceuticals, Inc., priority 2018, published 2021)

What was measured:
[1] = test system: C3c; experiment: Phase 2a study: urinary C3c (Hycult Human C3c Elisa Kit);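 also: urine from C3 glomerulopathy or IC-MPGN patients, C3c quantified by sandwich ELISA with absorbance read at 450 nm against a human C3c standard curve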
Method: To measure urinary C3c production, patient urine samples were tested utilizing the Hycult Biotech Human C3c Elisa Kit (HK368) for the quantitation of C3c in urine. […] Urine samples were thawed and centrifuged at 15,000 rpm for one minute. The supernatant was transferred to a fresh tube and diluted with C3c dilution buffer. Samples and standards were added to microtiter wells coated with antibodies recognizing human C3c and incubated at 1 hour at 15-25° C. Following incubation, the wells were washed 4 times with Wash Solution, with an incubation period of 1 minute each time. A biotinylated tracer antibody was added and used to bind to the captured human C3c. Streptavidin-peroxidase conjugate was then added to bind to the biotinylated tracer antibody. Tetramethylbenzidine (TMB) was then added to the Streptavidin-peroxidase conjugate. The enzyme reaction was stopped by the addition of oxalic acid. The absorbance at 450 nm was measured with a spectrophotometer. A standard curve was obtained by plotting the absorbance (linear) versus the corresponding concentrations of the human C3c standards (log). The human C3c concentration of samples, which are run concurrently with the standards, were determined from the standard curve.

[2] = test system: AP activity; experiment: PNH erythrocyte hemolysis (AP activity in vitro); format: cell-based
[3] = test system: AP C3 convertase formation; experiment: Phase 2a study: ex vivo serum Ba production; format: in vivo, human; conditions: 14-day treatment, patients A-F
Method: (§1) Systemic complement proteins were measured in serum and plasma including serum Ba, plasma Bb, serum C3, serum Factor D, serum C4, and % Fragment C3.

[4] = test system: C3; experiment: Phase 2a study: C3 levels in serum; format: in vivo, human; conditions: 14-day treatment, patients A-F
Method: as §1
C3 levels in serum were measured using a quantitative sandwich enzyme immunoassay technique. A monoclonal antibody specific for human C3 was pre-coated onto a micro-assay plate. Standards and samples were pipetted into the wells and any C3 present was bound by the immobilized antibody. After washing away any unbound substances, an enzyme-linked polyclonal antibody specific for human C3 was added to the wells. Following a wash to remove any unbound antibody-enzyme reagent, a substrate solution was added to the wells and color develops in proportion to the amount of C3 bound in the initial step. The color development was stopped and the intensity of the color was measured. […] Patients E and F show similar results.

[5] = test system: Bb; experiment: Phase 2a study: Bb levels in plasma; format: in vivo, human; conditions: 14-day treatment, patients A-F
Method: as §1

## CC(=O)c1nn(CC(=O)N2C[C@H](F)C[C@H]2C(=O)Nc2cccc(Br)n2)c2ccc(-c3cnc(C)nc3)cc12 [Compound 1, (2S,4R)-1-(2-(3-acetyl-5-(2-methylpyrimidin-5-yl)-1H-indazol-1-yl)acetyl)-N-(6-bromopyridin-2-yl)-4-fluoropyrrolidine-2-carboxamide]
[1]; Patient A, 100 mg TID, Day 1 predose
  uC3c: 25.4 ng/mL
[1]; Patient A, 100 mg TID, Day 4
  uC3c: 15.2 ng/mL
[1]; Patient A, 100 mg TID, Day 7-0 Hour
  uC3c: 7.1 ng/mL
[1]; Patient A, 100 mg TID, Day 10
  uC3c: 9.9 ng/mL
[1]; Patient A, 100 mg TID, Day 14
  uC3c: 3.6 ng/mL
[1]; Patient A, 100 mg TID, Day 15 Taper
  uC3c: 6.8 ng/mL
[1]; Patient A, 100 mg TID, Day 16 Taper
  uC3c: 4.1 ng/mL
[1]; Patient A, 100 mg TID, Day 17 Taper
  uC3c: 8.5 ng/mL
[1]; Patient A, 100 mg TID, Day 21
  uC3c: 7.8 ng/mL
[1]; Patient A, 100 mg TID, Day 24
  uC3c: 11.4 ng/mL
[1]; Patient A, 100 mg TID, Day 28
  uC3c: 15.6 ng/mL
[1]; Patient A, 100 mg TID, Day 49
  uC3c: 32.8 ng/mL
[1]; Patient B, 100 mg TID, Day 1 predose
  uC3c: 771.1 ng/mL
[1]; Patient B, 100 mg TID, Day 4
  uC3c: 369.0 ng/mL
[1]; Patient B, 100 mg TID, Day 7-0 Hour
  uC3c: 289.2 ng/mL
[1]; Patient B, 100 mg TID, Day 10
  uC3c: 256.0 ng/mL
[1]; Patient B, 100 mg TID, Day 14
  uC3c: 462.7 ng/mL
[1]; Patient B, 100 mg TID, Day 15 Taper
  uC3c: 682.8 ng/mL
[1]; Patient B, 100 mg TID, Day 16 Taper
  uC3c: 534.1 ng/mL
[1]; Patient B, 100 mg TID, Day 17 Taper
  uC3c: 290.8 ng/mL
[1]; Patient B, 100 mg TID, Day 21
  uC3c: 513.5 ng/mL
[1]; Patient B, 100 mg TID, Day 24
  uC3c: 744.1 ng/mL
[1]; Patient B, 100 mg TID, Day 28
  uC3c: 285.3 ng/mL
[1]; Patient B, 100 mg TID, Day 49
  uC3c: >1000 ng/mL
[1]; Patient C, 200 mg TID, Day 1 predose
  uC3c: <1.6 ng/mL
[1]; Patient C, 200 mg TID, Day 4
  uC3c: <1.6 ng/mL
[1]; Patient C, 200 mg TID, Day 7-0 Hour
  uC3c: <1.6 ng/mL
[1]; Patient C, 200 mg TID, Day 10
  uC3c: <1.6 ng/mL
[1]; Patient C, 200 mg TID, Day 14
  uC3c: <1.6 ng/mL
[1]; Patient C, 200 mg TID, Day 15 Taper
  uC3c: <1.6 ng/mL
[1]; Patient C, 200 mg TID, Day 17 Taper
  uC3c: <1.6 ng/mL
[1]; Patient C, 200 mg TID, Day 21
  uC3c: <1.6 ng/mL
[1]; Patient C, 200 mg TID, Day 24
  uC3c: 2.1 ng/mL
[1]; Patient C, 200 mg TID, Day 28
  uC3c: <1.6 ng/mL
[1]; Patient C, 200 mg TID, Day 49
  uC3c: <1.6 ng/mL
[1]; Patient D, 200 mg TID, Day 1 predose
  uC3c: 8.8 ng/mL
[1]; Patient D, 200 mg TID, Day 4
  uC3c: 5.3 ng/mL
[1]; Patient D, 200 mg TID, Day 7-0 Hour
  uC3c: <1.6 ng/mL
[1]; Patient D, 200 mg TID, Day 10
  uC3c: <1.6 ng/mL
[1]; Patient D, 200 mg TID, Day 14
  uC3c: 3.7 ng/mL
[1]; Patient D, 200 mg TID, Day 15 Taper
  uC3c: 3.6 ng/mL
[1]; Patient D, 200 mg TID, Day 17 Taper
  uC3c: 4.8 ng/mL
[1]; Patient D, 200 mg TID, Day 21
  uC3c: 5.8 ng/mL
[1]; Patient D, 200 mg TID, Day 24
  uC3c: 5.1 ng/mL
[1]; Patient D, 200 mg TID, Day 28
  uC3c: 5.1 ng/mL
[1]; Patient D, 200 mg TID, Day 49
  uC3c: 7.0 ng/mL
[1]; Patient E, 200 mg TID, Day 1 predose
  uC3c: 159.6 ng/mL
[1]; Patient E, 200 mg TID, Day 4
  uC3c: 137.7 ng/mL
[1]; Patient E, 200 mg TID, Day 7-0 Hour
  uC3c: 168.2 ng/mL
[1]; Patient E, 200 mg TID, Day 10
  uC3c: 123.2 ng/mL
[1]; Patient E, 200 mg TID, Day 14
  uC3c: 64.4 ng/mL
[1]; Patient E, 200 mg TID, Day 15 Taper
  uC3c: 39.7 ng/mL
[1]; Patient E, 200 mg TID, Day 16 Taper
  uC3c: 46.8 ng/mL
[1]; Patient E, 200 mg TID, Day 17 Taper
  uC3c: 107.0 ng/mL
[1]; Patient E, 200 mg TID, Day 21
  uC3c: 41.2 ng/mL
[1]; Patient E, 200 mg TID, Day 24
  uC3c: 89.6 ng/mL
[1]; Patient E, 200 mg TID, Day 28
  uC3c: 97.8 ng/mL
[1]; Patient E, 200 mg TID, Day 49
  uC3c: 120.3 ng/mL
[1]; Patient F, 200 mg TID, Day 1 predose
  uC3c: 216.3 ng/mL
[1]; Patient F, 200 mg TID, Day 4
  uC3c: 63.0 ng/mL
[1]; Patient F, 200 mg TID, Day 7-0 Hour
  uC3c: 25.8 ng/mL
[1]; Patient F, 200 mg TID, Day 10
  uC3c: 43.9 ng/mL
[1]; Patient F, 200 mg TID, Day 14
  uC3c: 31.8 ng/mL
[1]; Patient F, 200 mg TID, Day 15 Taper
  uC3c: 24.2 ng/mL
[1]; Patient F, 200 mg TID, Day 16 Taper
  uC3c: 30.0 ng/mL
[1]; Patient F, 200 mg TID, Day 17 Taper
  uC3c: 32.4 ng/mL
[1]; Patient F, 200 mg TID, Day 21
  uC3c: 64.0 ng/mL
[1]; Patient F, 200 mg TID, Day 24
  uC3c: 34.4 ng/mL
[1]; Patient F, 200 mg TID, Day 28
  uC3c: 41.5 ng/mL
[1]; Patient F, 200 mg TID, Day 49
  uC3c: 154.5 ng/mL
[1]; two-week treatment
  Urinary C3c levels: reduced significantly
  Urinary C3c levels normalized to urinary creatinine or albumin: reduced significantly
[2]
  IC50: 14 nM
[3]
  Ex vivo serum Ba production: inhibited
[4]
  Serum C3: increased
[5]
  Plasma Bb: reduced
